Experiments:
[1] = test system: Human melanoma cells (HMVII); assay: Melanin production inhibition test, HMVII cells; type: cell-based; settings: control = 100
Description: Human melanoma cells (HMVII) were the third or higher passage cultured in a culture solution of a Ham F-12 culture medium (manufactured by Nissui Pharmaceutical Co., Ltd.) containing 10% FBS, mixed with 0.5% penicillin-streptomycin (manufactured by Gibco). The test samples were the freeze-dried products of the hot water extract obtained in Preparation 1 (1) and the fractions eluted with 10% and 50% aqueous ethanol solutions obtained in Preparation 1 (2). […] The culture medium was removed, washed with PBS, and then 100 μL of a trypsin EDTA solution was added thereby removing the cells from the plate, and 900 μL of 1N sodium hydroxide aqueous solution was added. The cells were allowed to stand at room temperature for 20 to 24 hours thereby causing cytolysis, and then the melanin content was measured at an absorbance of 475 nm.

tyrosinase = assay: Tyrosinase activity inhibition test; type: biochemical; settings: DOPA substrate, control = 100
Experimental: (§1) The test samples were the freeze-dried products of the hot water extract obtained in Preparation 1 (1) and the fractions eluted with 10% and 50% aqueous ethanol solutions obtained in Preparation 1 (2).
0.5 mL of substrate (DOPA) solution adjusted to the final concentration of 0.03% with a phosphoric acid buffer was mixed with 0.5 mL of test sample solution prepared using a phosphoric acid buffer, and cooled on ice. 0.5 mL of tyrosinase solution adjusted to the final concentration of 45 U/mL with a phosphoric acid buffer was added to the mixture, incubated at 25° C. for 5 minutes, and then the absorbance at 475 nm was measured. The reaction rate (activity) of tyrosinase was calculated from the difference of the absorbance. In order to eliminate the influence of the color of the test sample, the absorbance of a mixture containing a phosphoric acid buffer in place of the tyrosinase solution was measured, thereby correcting the absorbance.

[2] = test system: Mouse melanoma cells B16F1; assay: Melanin production inhibition test, B16F1 cells; type: cell-based; settings: control = 100; for Melanin production rate: α-MSH 100 ng/mL, 72 hours
Experimental: Mouse melanoma cells B16F1 were the third or higher passage cultured in Dulbecco's Modified Eagle Medium (D-MEM) containing 10% FBS (manufactured by Nissui Pharmaceutical Co., Ltd.) mixed with 0.5% penicillin-streptomycin (manufactured by Gibco).
as §1
(a) Amount of Melanin Production • 960 μL of mouse cells B16F1 cultured in D-MEM culture medium containing 10% FBS was seeded on a 24-well plate to give a final concentration of 1.0×10^5 cells/well (seeding concentration: 1.04×10^5 cells/mL), and cultured for 24 hours in a CO^2 incubator. 20 μL of melanin production hormone (α-MSH) adjusted to a final concentration of 100 ng/mL (addition concentration: 5.0 μg/mL) and 20 μL of test sample adjusted to 10 μg/mL (500 μg/mL) or 100 μg/mL (5000 μg/mL) were added, and cultured for 72 hours. The culture medium was removed, washed with PBS, and then 100 μL of a trypsin EDTA solution was added thereby removing the cells from the plate, and 900 μL of 1N sodium hydroxide aqueous solution was added. The cells were allowed to stand at room temperature for 20 to 24 hours thereby causing cytolysis, and then the melanin content was measured at an absorbance of 475 nm.

Structure (SMILES): O=C1O[C@H]([C@@H](O)CO)C(O)=C1O [Ascorbic acid]
- Melanin production rate after correction of survival rate ([1]; 10 μg/mL): 102.74%
- Melanin production rate after correction of survival rate ([1]; 100 μg/mL): 95.60%
- Melanin production rate ([1]; 100 μg/mL, α-MSH 100 ng/mL, 72 hours): 94.76%

Structure (SMILES): O=c1cc(CO)occ1O [Kojic acid]
- Reaction rate of tyrosinase (tyrosinase; 10 μg/mL): 42.35%
- Reaction rate of tyrosinase (tyrosinase; 100 μg/mL): 8.71%

Structure (SMILES): OC[C@H]1O[C@@H](Oc2ccc(O)cc2)[C@H](O)[C@@H](O)[C@@H]1O [β arbutin]
- Melanin production rate after correction of survival rate ([2]; 10 μg/mL): 83.48%
- Melanin production rate ([2]; 10 μg/mL): 95.41%
- Melanin production rate after correction of survival rate ([2]; 100 μg/mL): 82.52%
- Melanin production rate ([2]; 100 μg/mL): 93.76%

From patent US8673376B2, “Polyphenol-containing composition for oral administration or external use and use of same” (Biotherapy Development Research Center Co., Ltd., priority 2009, dated 2014)
